Reference: patent US8304448B2, “Method for the treatment of metabolic disorder containing benzazole derivatives as an active ingredient” (Korea Research Institute of Bioscience and Biotechnology, priority 2006, dated 2012)

Assays:
DGAT = assay: Assay for inhibitory activity against DGAT ([14C]triacylglycerol formation, rat microsomal protein); format: biochemical; conditions: rat microsomal protein as enzyme source
[1] = system: ICR mice fed a high-fat diet; assay: In vivo assay for anti-obesity activity in mice fed a high-fat diet; parameters: species or system mouse
Experimental: Also, the derivatives of Chemical Formula 1 were tested for resistance to obesity by iterative oral administration at a dose of 10 mg/kg into ICR male mice (refer to Example 3). […] When they were administered, the levels of total triglycerides, total cholesterols, and low density lipoprotein (LDL)-cholesterol in the blood recovered to almost normal levels, with a significant increase observed in the level of high density lipoprotein (HDL)-cholesterol in the blood (refer to Tables 6 and 7 and FIGS. 3 and 4).
In order to verify the anti-obesity activity of the benzaldehyde derivatives of Chemical Formula 1 in accordance with the present invention, Compounds 22 and 31 were administered repetitively into rodents as follows.
The experimental animals were 6 week old ICR mice which were purchased from Japan SLC, Inc. via Central Lab. Animal Inc. Korea. They were acclimated to a new environment for one week before use, and fed with a foodstuff commercially available from Deyts, U.S.A. They were bred in an animal lab set at a temperature of 23±3° C. and RH 50±10% under light of 150˜300 Lux for a period of 12 hours (6 a.m.˜6 p.m.) with ventilation 10-20 times/hour. All of the 12 mice used were male, and were organized into two groups of 6. The test group was orally administered once a day at 4 p.m. with 10 mg/kg of the compound (Chemical Formula 1) in the form of a solution in biological saline for 35 days while the control was administered with biological saline only. Xenical, a commercially available lipase inhibitor, was administered orally at a dose of 10 mg/kg once a day as a positive control drug.
The animals were measured for body weight every week and sacrificed on Day 35, after which blood from the heart was sampled. Abdominal fat, epididymal fat, retroperitoneal fat and the liver were excised and weighed. Blood samples were assayed for total triglyceride, total cholesterol, HDL-cholesterol and LDL-cholesterol using respective test kits, all commercially available from Asan Pharmaceutical Co. Ltd., Korea.
For evidence of anti-obesity activity, compounds 22 and 31 were orally administered at regular intervals at a dose of 10 mg/kg into ICR male mice for a predetermined period of time with the concurrent provision of conditional diets thereto. Anatomized abdomens of the animals are given in the photographs of FIG. 2.

ICR mice = assay: Acute toxicity, oral administration for two weeks, mice; format: in vivo; conditions: oral 100 and 250 mg/kg for two weeks
Experimental: (§1) An assay of the benzazole derivatives of Chemical Formula 1 in accordance with the present invention was performed for acute toxicity on mice (20±5 g, Central Lab. Animal Inc.) and rats (235±10 g, Central Lab. Animal Inc.).
(§2) For this, ICR mice and Sprague-Dawley rats were assigned to 4 groups of 10 and orally administered with Compound 22 in doses of 100 and 250 mg/kg for two weeks.

Sprague-Dawley rats = assay: Acute toxicity, oral administration for two weeks, rats; format: in vivo; conditions: oral 100 and 250 mg/kg for two weeks
Experimental: as §1, §2

[2] = Day 35, high-fat diet, 10 mg/kg oral, Mean ± SD
[3] = blood, Day 35, high-fat diet, 10 mg/kg oral, Mean ± SD

O=C(NCc1ccco1)c1ccc2oc(COc3ccc(C45CC6CC(CC(C6)C4)C5)cc3)nc2c1 [Cpd. 22, 2-(4-adamantan-1-yl-phenoxymethyl)-benzoxazole-5-carboxylic acid (furan-2-ylmethyl)-amide]
DGAT (% inhibition in 5 μM) (DGAT; 5 μM): 42.8% | DGAT (% inhibition in 25 μM) (DGAT; 25 μM): 78.03% | abdominal fat increment (FIG. 2) ([1]; 10 mg/kg, compared to groups fed only the high-fat diet, final day): significantly decreased | (Tissue Weight/Body Weight) × 100 Abdominal Fat + Epididymal Fat [1, 2]: 3.97 ± 0.72 | (Tissue Weight/Body Weight) × 100 Liver [1, 2]: 4.66 ± 0.65 | (Tissue Weight/Body Weight) × 100 Retroperitoneal Fat [1, 2]: 1.24 ± 1.31 | (Tissue Weight/Body Weight) × 100 Total Fat [1, 2]: 5.24 ± 0.91 | HDL-Cholesterol [1, 3]: 21.66 ± 2.16 mg/dL | LDL-Cholesterol [1, 3]: 37.57 ± 15.14 mg/dL | Total Cholesterol [1, 3]: 68.89 ± 14.95 mg/dL | Total Triglyceride [1, 3]: 48.33 ± 9.83 mg/dL | inhibition of body weight gain ([1]; high-fat diet, 10 mg/kg oral once a day for 35 days): 68% | Body Weight (g) (Mean ± SD) Week 0 ([1]; high-fat diet, 10 mg/kg oral once a day, Week 0): 26.30 ± 1.27 g | Body Weight (g) (Mean ± SD) Week 1 ([1]; high-fat diet, 10 mg/kg oral once a day, Week 1): 34.75 ± 1.75 g | Body Weight (g) (Mean ± SD) Week 2 ([1]; high-fat diet, 10 mg/kg oral once a day, Week 2): 37.94 ± 2.33 g | Body Weight (g) (Mean ± SD) Week 3 ([1]; high-fat diet, 10 mg/kg oral once a day, Week 3): 40.34 ± 3.39 g | Body Weight (g) (Mean ± SD) Week 4 ([1]; high-fat diet, 10 mg/kg oral once a day, Week 4): 42.48 ± 2.90 g | Body Weight (g) (Mean ± SD) Week 5 ([1]; high-fat diet, 10 mg/kg oral once a day, Week 5): 43.90 ± 1.20 g | apparent symptoms (ICR mice): no apparent symptoms different from the control | apparent symptoms (Sprague-Dawley rats): no apparent symptoms different from the control
